Assay results published in patent EP2975030B1, “DIHYDROPYRIDAZINE-3,5-DIONE DERIVATIVE” (Chugai Seiyaku Kabushiki Kaisha, priority 2013, dated 2014).

Test system: rat small-intestinal brush border membrane vesicles
Test: Inhibitory effect on 33PO4 uptake into rat small-intestinal brush border membrane vesicles (rapid filtration method)
Format: biochemical, Wistar female rat
Conditions: 1 µM test compound; 33PO4 uptake into rat small-intestinal BBMVs, 60 seconds
How it was run: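 Uptake was terminated by ice-cold 110 mM NaCl, 1 mM KH2PO4, 10 mM HEPES (pH 7.5) buffer and immediate suction filtration, then washing. Using rat small-intestinal BBMVs, retained 33PO4 was quantified by liquid scintillation counting as transport activity.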

Compound | Rate of uptake inhibition (%) (1 µM)
CCOC(=O)CCCCCCN1C(=O)C(C(=O)Nc2ccc(C(F)(F)F)cc2-c2ccc(C(F)(F)F)nc2)=C(O)[C@@]2(C)CCCN12 [Example 235, Ethyl 7-[(4aR)-4-hydroxy-4a-methyl-2-oxo-3-[[4-(trifluoromethyl)-2-[6-(trifluoromethyl)pyridin-3-yl]phenyl]carbamoyl]-6,7-dihydro-5H-pyrrolo[1,2-b]pyridazin-1-yl]heptanoate] | 65
COCCOCCOCCCCCCCCN1C(=O)C(C(=O)Nc2ccc(C(F)(F)F)cc2-c2cc(C(F)(F)F)ncn2)=C(O)[C@@]2(C)CCCN12 [Example 236, (4aR)-4-Hydroxy-1-[8-[2-(2-methoxyethoxy)ethoxy]octyl]-4a-methyl-2-oxo-N-[4-(trifluoromethyl)-2-[6-(trifluoromethyl)pyrimidine-4-yl]phenyl]-6,7-dihydro-5H-pyrrolo[1,2-b]pyridazine-3-carboxamide] | 60
CN1[C@@H](C(C)(C)C)C(O)=C(C(=O)Nc2ccc(Cl)cc2-c2cc(C(F)(F)F)ncn2)C(=O)N1Cc1cccc(F)c1F [Example 237] | 51
CN1[C@@H](C(C)(C)C)C(O)=C(C(=O)Nc2ccc(C(F)(F)F)cc2-c2ccc(C(F)(F)F)nc2)C(=O)N1Cc1cccc(F)c1F [Example 238] | 47
CN1[C@@H](C(C)(C)C)C(O)=C(C(=O)Nc2ccc(Cl)cc2-c2ccc(C(F)(F)F)nc2)C(=O)N1Cc1cccc(F)c1F [Example 239] | 48
CN1[C@@H](C(C)(C)C)C(O)=C(C(=O)Nc2cc(F)c(Br)c(F)c2)C(=O)N1Cc1cccc(F)c1F [Example 240] | 72
Cc1nc(NC(=O)C2=C(O)[C@H](C(C)(C)C)N(C)N(Cc3cccc(F)c3F)C2=O)ccc1Br [Example 241] | 86
CN1[C@@H](C(C)(C)C)C(O)=C(C(=O)Nc2ccc(Br)c(C(F)(F)F)n2)C(=O)N1Cc1cccc(F)c1F [Example 242] | 69
CN1[C@@H](C(C)(C)C)C(O)=C(C(=O)Nc2ccc(Br)c(C(F)(F)F)c2)C(=O)N1Cc1cccc(F)c1F [Example 243] | 63
CN1[C@@H](C(C)(C)C)C(O)=C(C(=O)Nc2cccc(C(F)(F)F)n2)C(=O)N1Cc1cccc(F)c1F [Example 244] | 71
CCN1[C@@H](C(C)(C)C)C(O)=C(C(=O)Nc2ccc(Cl)cc2-c2ccc(C(F)(F)F)nc2)C(=O)N1Cc1cccc(F)c1F [Example 245] | 40
CCN1[C@@H](C(C)(C)C)C(O)=C(C(=O)Nc2cc(F)c(Br)c(F)c2)C(=O)N1Cc1cccc(F)c1F [Example 246] | 52
CC(C)(C)[C@H]1C(O)=C(C(=O)Nc2ccc(Cl)cc2-c2ccc(C(F)(F)F)nc2)C(=O)N(Cc2cccc(F)c2F)N1CC(F)(F)F [Example 247] | 51
CC(C)(C)[C@H]1C(O)=C(C(=O)Nc2cc(F)c(Br)c(F)c2)C(=O)N(Cc2cccc(F)c2F)N1CC(F)(F)F [Example 248] | 45
CC(C)[C@@H]1C(O)=C(C(=O)Nc2ccc(C(F)(F)F)cc2-c2cc(C(F)(F)F)ncn2)C(=O)N(Cc2cccc(F)c2F)N1C [Example 249] | 50
CC(C)[C@@H]1C(O)=C(C(=O)Nc2ccc(Cl)cc2-c2cc(C(F)(F)F)ncn2)C(=O)N(Cc2cccc(F)c2F)N1C [Example 250] | 52
CC(C)[C@@H]1C(O)=C(C(=O)Nc2ccc(Cl)cc2-c2ccc(C(F)(F)F)nc2)C(=O)N(Cc2cccc(F)c2F)N1C [Example 251] | 43
CC(C)[C@H]1C(O)=C(C(=O)Nc2ccc(C(F)(F)F)cc2-c2cc(C(F)(F)F)ncn2)C(=O)N(Cc2cccc(F)c2F)N1C [Example 252] | 53
CC(C)[C@H]1C(O)=C(C(=O)Nc2ccc(C(F)(F)F)cc2-c2ccc(C(F)(F)F)nc2)C(=O)N(Cc2cccc(F)c2F)N1C [Example 253] | 40
CC(C)[C@H]1C(O)=C(C(=O)Nc2cc(F)c(Br)c(F)c2)C(=O)N(Cc2cccc(F)c2F)N1C [Example 254] | 58
CN1N(Cc2cccc(F)c2F)C(=O)C(C(=O)Nc2ccc(Cl)cc2-c2cc(C(F)(F)F)ncn2)=C(O)C12CCC2 [Example 255] | 80
CN1N(Cc2cccc(F)c2F)C(=O)C(C(=O)Nc2ccc(Cl)cc2-c2ccc(C(F)(F)F)nc2)=C(O)C12CCC2 [Example 256] | 79
CN1N(Cc2cccc(F)c2F)C(=O)C(C(=O)Nc2cc(F)c(Br)c(F)c2)=C(O)C12CCC2 [Example 257] | 71
CN1N(Cc2cccc(F)c2F)C(=O)C(C(=O)Nc2ccc(Br)c(C(F)(F)F)n2)=C(O)C12CCC2 [Example 258] | 87
Cc1nc(NC(=O)C2=C(O)C3(CCC3)N(C)N(Cc3cccc(F)c3F)C2=O)ccc1Br [Example 259] | 52

Compound | Rate of uptake inhibition (%) (1 µM)
CN1N(Cc2cccc(F)c2F)C(=O)C(C(=O)Nc2ccc(C(F)(F)F)cc2-c2cc(C(F)(F)F)ncn2)=C(O)C12CCCC2 [Example 260] | 70
CN1N(Cc2cccc(F)c2F)C(=O)C(C(=O)Nc2ccc(Cl)cc2-c2cc(C(F)(F)F)ncn2)=C(O)C12CCCC2 [Example 261] | 77
Cc1nc(NC(=O)C2=C(O)C3(CCCC3)N(C)N(Cc3cccc(F)c3F)C2=O)ccc1Br [Example 262] | 43
CN1N(Cc2cccc(F)c2F)C(=O)C(C(=O)Nc2ccc(Br)c(C(F)(F)F)n2)=C(O)C12CCCC2 [Example 263] | 66
CN1[C@@H](C(C)(C)C)C(O)=C(C(=O)Nc2ccc(C(F)(F)F)cc2-c2ccc(C(F)(F)F)nc2)C(=O)N1Cc1ccc(OCCN2CCOCC2)c(F)c1F [Example 266] | 62
CSc1ccc(-c2cc(C(F)(F)F)ccc2NC(=O)C2=C(O)[C@H](C(C)(C)C)N(C)N(Cc3ccc(OCCN4CCOCC4)c(F)c3F)C2=O)cn1 [Example 268] | 63
CN1[C@@H](C(C)(C)C)C(O)=C(C(=O)Nc2ccc(C(F)(F)F)cc2-c2ccnc(C#N)c2)C(=O)N1Cc1ccc(OCCN2CCOCC2)c(F)c1F [Example 271] | 60
CN1[C@@H](C(C)(C)C)C(O)=C(C(=O)Nc2ccc(Cl)cc2-c2cc(C#N)ncn2)C(=O)N1Cc1ccc(OCCN2CCOCC2)c(F)c1F [Example 272] | 43
CN1[C@@H](C(C)(C)C)C(O)=C(C(=O)Nc2cnc(C(F)(F)F)nc2-c2ccc(C(F)(F)F)nc2)C(=O)N1Cc1ccc(OCCN2CCOCC2)c(F)c1F [Example 273] | 41
Cc1c(C#N)ncnc1-c1cc(Cl)ccc1NC(=O)C1=C(O)[C@H](C(C)(C)C)N(C)N(Cc2ccc(OCCN3CCOCC3)c(F)c2F)C1=O [Example 274] | 43
Cc1c(Cl)ncnc1-c1cc(Cl)ccc1NC(=O)C1=C(O)[C@H](C(C)(C)C)N(C)N(Cc2ccc(OCCN3CCOCC3)c(F)c2F)C1=O [Example 275] | 42
Cc1c(Cl)ncnc1-c1cc(C(F)(F)F)ccc1NC(=O)C1=C(O)[C@H](C(C)(C)C)N(C)N(Cc2ccc(OCCN3CCOCC3)c(F)c2F)C1=O [Example 276] | 68
CN1[C@@H](C(C)(C)C)C(O)=C(C(=O)Nc2ccc(C(F)(F)F)cc2C(F)(F)F)C(=O)N1Cc1ccc(OCCN2CCOCC2)c(F)c1F [Example 277] | 41
Cc1c(-c2cc(C(F)(F)F)ccc2NC(=O)C2=C(O)[C@H](C(C)(C)C)N(C)N(Cc3ccc(OCCN4CCOCC4)c(F)c3F)C2=O)ncnc1C(F)(F)F [Example 278] | 69
CC(C)[C@H]1C(O)=C(C(=O)Nc2ccc(C(F)(F)F)cc2-c2ccc(C(F)(F)F)nc2)C(=O)N(Cc2ccc(OCCN3CCOCC3)c(F)c2F)N1C [Example 280] | 50
CC(C)[C@H]1C(O)=C(C(=O)Nc2ccc(Cl)cc2-c2ccc(C(F)(F)F)nc2)C(=O)N(Cc2ccc(OCCN3CCOCC3)c(F)c2F)N1C [Example 281] | 41
CN1N(Cc2ccc(OCCN3CCOCC3)c(F)c2F)C(=O)C(C(=O)Nc2ccc(C(F)(F)F)cc2-c2ccc(C(F)(F)F)nc2)=C(O)C12CCC2 [Example 282] | 55
Cc1c(C#N)ncnc1-c1cc(C(F)(F)F)ccc1NC(=O)C1=C(O)C2(CCC2)N(C)N(Cc2ccc(OCCN3CCOCC3)c(F)c2F)C1=O [Example 283] | 45
CN1N(Cc2ccc(OCCN3CCOCC3)c(F)c2F)C(=O)C(C(=O)Nc2ccc(C(F)(F)F)cc2-c2ncnc(C(F)(F)F)c2Cl)=C(O)C12CCC2 [Example 284] | 46
Cc1c(-c2cc(C(F)(F)F)ccc2NC(=O)C2=C(O)C3(CCC3)N(C)N(Cc3ccc(OCCN4CCOCC4)c(F)c3F)C2=O)ncnc1C(F)(F)F [Example 285] | 62
CN1N(Cc2ccc(OCCN3CCOCC3)c(F)c2F)C(=O)C(C(=O)Nc2ccc(Cl)cc2-c2cc(C(F)(F)F)ncn2)=C(O)C12CCCC2 [Example 286] | 50
CN1N(Cc2ccc(OCCN3CCOCC3)c(F)c2F)C(=O)C(C(=O)Nc2ccc(C(F)(F)F)cc2-c2ccc(C(F)(F)F)nc2)=C(O)C12CCCC2 [Example 287] | 47
CN1N(Cc2ccc(OCCN3CCOCC3)c(F)c2F)C(=O)C(C(=O)Nc2ccc(Cl)cc2-c2ccc(C(F)(F)F)nc2)=C(O)C12CCCC2 [Example 288] | 61
CSc1ccc(-c2cc(C(F)(F)F)ccc2NC(=O)C2=C(O)C3(CCCC3)N(C)N(Cc3ccc(OCCN4CCOCC4)c(F)c3F)C2=O)cn1 [Example 289] | 55
Cc1c(-c2cc(C(F)(F)F)ccc2NC(=O)C2=C(O)C3(CCCC3)N(C)N(Cc3ccc(OCCN4CCOCC4)c(F)c3F)C2=O)ncnc1C(F)(F)F [Example 290] | 59
